Test results: US10350210B2, “EGFR and ALK dual inhibitor” (PRECEDO PHARMACEUTICALS CO., LTD, priority 2015, dated 2019)

What was measured:
[1] = system: NCI-H2228; assay: Growth of cancer cells (Cell Titer-Glo viability), NCI-H2228; assay type: cell-based; details: Homo sapiens; NCI-H2228 (wild-type ALK), 72 hrs
[2] = system: A431; assay: Growth of cancer cells (Cell Titer-Glo viability), A431; assay type: cell-based; details: Homo sapiens, A-431; A431 (wild-type EGFR), 72 hrs; read-out: GI50
[3] = system: BaF3-TEL-EGFR-T790M; assay: Cell growth (Cell Titer-Glo viability), BaF3-TEL-EGFR-T790M; assay type: cell-based; details: Mus musculus; BaF3-TEL-EGFR-T790M (EGFR T790M mutant kinase), 72 hrs
Outline: (§1)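 Cells are counted as viable by CellTiter-Glo chemiluminescence. Murine BaF3 lines depend on a stably transfected TEL-fused kinase after IL-3 withdrawal, and the NSCLC lines express mutant EGFR.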

[4] = system: A549; assay: Effect on cell apoptosis (Western Blot, PARP and Caspase 3 cleavage), A549; assay type: cell-based, human; details: A549 (wild-type EGFR), 24 hours
Text: In order to confirm whether the death of cells is through apoptosis or necrosis after administration of drugs, non-small cell lung cancer cell A549 (expressing wild-type EGFR gene), non-small cell lung cancer cell line H1975 (expressing EGFR L858R/T790M double mutant gene), non-small cell lung cancer cell line H3255 (expressing EGFR L858R mutant gene), non-small cell lung cancer cell line H3122 (expressing ALK gene) cell line, and non-small cell lung cancer cell line PC-9 (expressing EGFR delE746_A750 mutant gene) were tested for effect of Compound 1 on cleavage of poly ADP-ribose polymerase PARP which is a DNA repair enzyme and Caspase 3, which were closely related to cell apoptosis. […] Western Blot was used to detect the effect of various concentrations of drugs at various time points on cleavage of poly ADP-ribose polymerase PARP which is a DNA repair enzyme and Caspase 3.

[5] = system: EGFR protein (wild-type EGFR, A549); assay: Effect on signaling pathway in cells, A549; assay type: cell-based, human; details: 0.03-3 μM, 4 h
Text: (§2) In four cell lines (all purchased from ATCC) including non-small cell lung cancer cell line A549 (expressing wild-type EGFR gene), non-small cell lung cancer cell line H1975 (expressing EGFR L858R/T790M double mutant gene), non-small cell lung cancer cell line H3255 (expressing EGFR L858R mutant gene) and non-small cell lung cancer cell line PC-9 (expressing EGFR delE746_A750 mutant gene), the effect of Compound 1 on EGFR or other protein kinases related to signaling pathways of EGFR such as Stat3, AKT, ErK, eIF4E, 4EBP1, P70S6K was assessed by assaying a number of cellular biochemical and functional endpoints. […] The effect of Compound 1 on phosphorylation of Stat3Y705, AKT T308, AKT 5473, Erk T202/204, EGFR Y1068, P70S6K Thr389, eIF4E Ser209, Erk T202/204, 4EBP1 (Thr37/46) in these cell lines was assayed (FIGS. 1a to 1d).

[6] = system: HCC827; assay: Growth of cancer cells (Cell Titer-Glo viability), HCC827; assay type: cell-based; details: Homo sapiens; HCC827 (mutant EGFR del19), 72 hrs
Outline: as §1

[7] = system: EGFR protein (EGFR delE746_A750, PC-9); assay: Effect on signaling pathway in cells, PC-9; assay type: cell-based, human; details: PC-9 (EGFR delE746_A750), 4 h
Text: as §2

[8] = system: BaF3-FL-EGFR-Del19; assay: Cell growth (Cell Titer-Glo viability), BaF3-FL-EGFR-Del19; assay type: cell-based; details: Mus musculus; BaF3-FL-EGFR-Del19 (EGFR delE746_A750 mutant kinase), 72 hrs
Outline: as §1

In the case of `C=CC(=O)Nc1cc(Nc2ncc(Cl)c(Nc3ccccc3S(=O)(=O)C(C)C)n2)c(OC)cc1N1CCCN(C)CC1` [Compound 10, N-(5-(5-chloro-4-(2-(isopropylsulfonyl)phenylamino)pyrimidin-2-ylamino)-4-methoxy-2-(4-methyl-1,4-homopiperazin-1-yl)phenyl)acrylamide], the GI50 [1] was under 3 nM and the GI50 [2] was 170 nM.
`C=CC(=O)Nc1cc(Nc2ncc(Cl)c(Nc3ccccc3S(=O)(=O)C(C)C)n2)c(OC)cc1N1CCN(CC)CC1` [Compound 1, N-(5-(5-chloro-4-(2-(isopropylsulfonyl)phenylamino)pyrimidin-2-ylamino)-2-(4-ethylpiperazin-1-yl)-4-methoxyphenyl)acrylamide] was tested, and the GI50 [3] was 32 nM, the “cleavage of PARP or Caspase 3 (apoptosis)” value [4] was “not observed” and the “effect on phosphorylation of EGFR protein and of STAT3, S6K, AKT, ERK, eIF4E” value [5] was “little effect”. For the same compound, the GI50 [6] was 3 nM, the GI50 [2] was 62 nM and the “concentration able to significantly inhibit the phosphorylation of EGFR protein (also affects AKT and ERK phosphorylation)” value [7] was 0.3 µM. For the same compound, the GI50 [8] was under 0.3 nM.
